The test system of one data set is WNV. Nature of the data set: WNV antiviral assay. Type of data set: cell-based, West Nile Virus. Particulars: for CC50: read-out: TC50 (the source's name). The text has this:
The use of N-(2,3-dihydro-1H-inden-5-yl)-2-(4-oxo-3-phenyl-3,4-dihydroquinazolin-2-yl)thio) acetamide, a compound employed according to the present disclosure, for treating West Nile Virus has been disclosed. For example, please see Chung et al. A Cell Based Assay for the Identification of Lead Compounds with Anti-Viral Activity Against West Nile Virus, Probe Reports from the NIH Molecular Libraries Program[Internet]. Bethesda (Md.): National Center for Biotechnology Information (US); 2010-2010 Feb. 27 [updated 2010 Oct. 4], PMID: 21433390 [PubMed].

A further data set concerns the target HCV Con1b (Replicon). The experiment in a line: HCV Con1b (Replicon) Luciferase end-point. Particulars: for CC50: read-out: TC50 (the source's name). The data set is classed as cell-based, Hepatitis C Virus. (A replicon is a self-replicating genome or part of one, used to study replication in cells.)

A value given as a limit tells only on which side of the number the result lay.

Regarding `O=C(CSc1nc2ccccc2c(=O)n1-c1ccccc1F)Nc1ccc2c(c1)CCC2` [Example C11, 2-[3-(2-fluorophenyl)-4-oxo(3-hydroquinazolin-2-ylthio)]-N-indan-5-ylacetamide], in the data set with WNV, the half-inhibitory concentration (IC50) lay in the range of 5 to 25 µM and the CC50 is at least 100 µM.

`Cc1cccc2c(=O)n(-c3ccccc3)c(SCC(=O)Nc3ccc4c(c3)CCC4)nc12` [Example C16, N-indan-5-yl-2-(8-methyl-4-oxo-3-phenyl(3-hydroquinazolin-2-ylthio))acetamide]: on HCV Con1b (Replicon), the IC50 was in the range of 1 to 5 µM and the CC50 lay within 10 to 50 µM.

Turning to `O=C(CSc1nc2ccccc2c(=O)n1-c1ccc(Cl)c(Cl)c1)Nc1cccc2c1CCC2` [Example C18, 2-[3-(3,4-dichlorophenyl)-4-oxo(3-hydroquinazolin-2-ylthio)]-N-indan-4-ylacetamide], at HCV Con1b (Replicon), the IC50 was 5 to 25 µM and the CC50 is 50 to 100 µM.

As to `O=C(CSc1nc2ccccc2c(=O)n1-c1ccc(Cl)c(Cl)c1)Nc1ccc2c(c1)OCO2` [Example C19, N-(2H-benzo[d]1,3-dioxolen-5-yl)-2-[3-(3,4-dichlorophenyl)-4-oxo(3-hydroquinazolin-2-ylthio)]acetamide], on HCV Con1b (Replicon), the IC50 was 1 to 5 µM and the CC50 was at least 100 µM.

Take `O=C(CSc1nc2ccccc2c(=O)n1-c1cc(Cl)cc(Cl)c1)Nc1ccc2c(c1)CCC2` [Example C20, 2-[3-(3,5-dichlorophenyl)-4-oxo(3-hydroquinazolin-2-ylthio)]-N-indan-5-ylacetamide]: in the data set with WNV, the IC50 lay within 1 to 5 µM and the CC50 was at least 100 µM.

Take `O=C(CCSc1nc2ccccc2c(=O)n1-c1ccc(F)c(Cl)c1)Nc1ccc2c(c1)CCC2` [Example C21, 3-[3-(3-chloro-4-fluorophenyl)-4-oxo(3-hydroquinazolin-2-ylthio)]-N-indan-5-ylpropanamide]: at HCV Con1b (Replicon), the IC50 lay within 5 to 25 µM and the CC50 was 10 to 50 µM.

Turning to `O=C(CSc1nc2ccccc2c(=O)n1-c1ccc(F)c(Cl)c1)Nc1cccc2c1CCC2` [Example C22, 2-[3-(3-chloro-4-fluorophenyl)-4-oxo(3-hydroquinazolin-2-ylthio)]-N-indan-4-ylacetamide], at HCV Con1b (Replicon), the half-inhibitory concentration (IC50) lay in the range of 1 to 5 µM and the CC50 lay in the range of 10 to 50 µM.

Turning to `O=C(CSc1nc2ccccc2c(=O)n1-c1ccc(F)c(Cl)c1)Nc1ccc2c(c1)OCO2` [Example C23, N-(2H-benzo[3,4-d]1,3-dioxolan-5-yl)-2-[3-(3-chloro-4-fluorophenyl)-4-oxo(3-hydroquinazolin-2-ylthio)]acetamide], on HCV Con1b (Replicon), the 50% inhibitory concentration (IC50) fell in the range of 5 to 25 µM and the CC50 was at least 100 µM.

In the case of `O=C(CSc1nc2cccc(F)c2c(=O)n1-c1ccccc1)NC1CCCc2ccccc21` (stereo not shown) [Example C28, 2-(5-fluoro-4-oxo-3-phenyl(3-hydroquinazolin-2-ylthio))-N-(1,2,3,4-tetrahydronaphthyl)acetamide], on HCV Con1b (Replicon), the 50% inhibitory concentration (IC50) was 5 to 25 µM and the CC50 is at least 100 µM.

With `O=C(CSc1nc2cccc(F)c2c(=O)n1-c1ccc(Cl)c(F)c1)Nc1ccc2c(c1)CCC2` [Example C29, 2-[3-(4-chloro-3-fluorophenyl)-5-fluoro-4-oxo(3-hydroquinazolin-2-ylthio)]-N-indan-5-ylacetamide], at HCV Con1b (Replicon), the concentration for half-maximal inhibition (IC50) is 1 to 5 µM and the CC50 is at least 100 µM.

Regarding `O=C(CSc1nc2cccc(F)c2c(=O)n1-c1cc(F)c(F)c(F)c1)Nc1ccc2c(c1)CCC2` [Example C30, 2-[5-fluoro-4-oxo-3-(3,4,5-trifluorophenyl)(3-hydroquinazolin-2-ylthio)]-N-indan-5-ylacetamide], on HCV Con1b (Replicon), the IC50 lay in the range of 1 to 5 µM and the CC50 lay within 50 to 100 µM.

For the molecule `O=C(CSc1nc2ccccc2c(=O)n1-c1ccccc1)Nc1ccc2c(c1)CCC2` [Example C32, N-indan-5-yl-2-(4-oxo-3-phenyl(3-hydroquinazolin-2-ylthio))acetamide], in the data set with WNV, the half-inhibitory concentration (IC50) was in the range of 5 to 25 µM and the CC50 is at least 100 µM.

Consider `Cc1cc(-n2c(SCC(=O)Nc3ccc4c(c3)CCC4)nc3ccccc3c2=O)ccc1Cl` [Example C33, 2-[3-(4-chloro-3-methylphenyl)-4-oxo(3-hydroquinazolin-2-ylthio)]-N-indan-5-ylacetamide], for which, in the data set with WNV, the IC50 lay in the range of 1 to 5 µM and the CC50 was 50 to 100 µM.

Turning to `Cc1cc(-n2c(SCC(=O)Nc3ccc4c(c3)CCC4)nc3ccccc3c2=O)ccc1F` [Example C34, 2-[3-(4-fluoro-3-methylphenyl)-4-oxo(3-hydroquinazolin-2-ylthio)]-N-indan-5-ylacetamide], in the data set on WNV, the IC50 was in the range of 5 to 25 µM and the CC50 was at least 100 µM.

With `O=C(CSc1nc2ccccc2c(=O)n1-c1cc(F)c(F)c(F)c1)Nc1ccc2c(c1)CCC2` [Example C35, N-indan-5-yl-2-[4-oxo-3-(3,4,5-trifluorophenyl)(3-hydroquinazolin-2-ylthio)]acetamide], in the data set on WNV, the IC50 is 5 to 25 µM and the CC50 is at least 100 µM.

Consider `Cc1ccc(-n2c(SCC(=O)Nc3ccc4c(c3)CCC4)nc3ccccc3c2=O)cc1Br` [Example C36, 2-[3-(3-bromo-4-methylphenyl)-4-oxo(3-hydroquinazolin-2-ylthio)]-N-indan-5-ylacetamide], for which, in the data set on WNV, the 50% inhibitory concentration (IC50) lay within 5 to 25 µM and the CC50 is at least 100 µM.

Take `O=C(CSc1nc2c(F)cccc2c(=O)n1-c1ccc(Cl)c(Cl)c1)Nc1ccc2c(c1)CCC2` [Example C37, 2-[3-(3,4-dichlorophenyl)-8-fluoro-4-oxo(3-hydroquinazolin-2-ylthio)]-N-indan-5-ylacetamide]: in the data set on WNV, the IC50 lay within 5 to 25 µM and the CC50 lay within 10 to 50 µM.

`O=C(CSc1nc2ccccc2c(=O)n1-c1cc(F)cc(F)c1)Nc1ccc2c(c1)CCC2` [Example C38, 2-[3-(3,5-difluorophenyl)-4-oxo(3-hydroquinazolin-2-ylthio)]-N-indan-5-ylacetamide]: in the data set on WNV, the IC50 lay within 5 to 25 µM and the CC50 is at least 100 µM.

Consider `O=C(CSc1nc2c(F)cccc2c(=O)n1-c1cc(Cl)cc(Cl)c1)Nc1ccc2c(c1)CCC2` [Example C39, 2-[3-(3,5-dichlorophenyl)-8-fluoro-4-oxo(3-hydroquinazolin-2-ylthio)]-N-indan-5-ylacetamide], for which, in the data set on WNV, the half-maximal inhibitory concentration (IC50) was in the range of 5 to 25 µM and the CC50 fell in the range of 50 to 100 µM.

In the case of `O=C(CSc1nc2ccccc2c(=O)n1-c1c(Cl)cccc1Cl)Nc1ccc2c(c1)CCC2` [Example C40, 2-[3-(2,6-dichlorophenyl)-4-oxo(3-hydroquinazolin-2-ylthio)]-N-indan-5-ylacetamide], in the data set on WNV, the half-maximal inhibitory concentration (IC50) fell in the range of 5 to 25 µM and the CC50 is at least 100 µM.

For `O=C(CSc1nc2ccccc2c(=O)n1-c1ccc(Cl)c(Br)c1)Nc1ccc2c(c1)CCC2` [Example C41, 2-[3-(3-bromo-4-chlorophenyl)-4-oxo(3-hydroquinazolin-2-ylthio)]-N-indan-5-ylacetamide], in the data set with WNV, the IC50 is 5 to 25 µM and the CC50 is at least 100 µM.

In the case of `O=C(CSc1nc2c(F)cccc2c(=O)n1-c1ccccc1)Nc1ccc2c(c1)CCC2` [Example C42, 2-(8-fluoro-4-oxo-3-phenyl(3-hydroquinazolin-2-ylthio))-N-indan-5-ylacetamide], in the data set on WNV, the IC50 fell in the range of 5 to 25 µM and the CC50 is at least 100 µM.

For `O=C(CSc1nc2ccccc2c(=O)n1-c1ccc(Cl)c(Cl)c1)Nc1ccc2scnc2c1` [Example C46, N-benzothiazol-5-yl-2-[3-(3,4-dichlorophenyl)-4-oxo(3-hydroquinazolin-2-ylthio)]acetamide], at HCV Con1b (Replicon), the IC50 was in the range of 1 to 5 µM and the CC50 was at least 100 µM.

A word on the IC50: it is the concentration that gives 50% inhibition.

For the origin of these results see patent publication US10611733B2, “Quinazolinone analogs and use of quinazolinone analogs for treating or preventing certain viral infections” (priority 2011, dated 2020).
